From US20150141437A1, “AMIDOPHENOXYPROPANOLAMINES” (MEDIZINISCHE UNIVERSITÄT WIEN, priority 2012, published 2015)

What was measured:
Format in all cases: cell-based
[1] = system: P. falciparum K1 (CQ-resistant); experiment: HRP2-based ELISA growth inhibition, K1 strain; settings: Plasmodium falciparum, unmarked values: HRP II ELISA, 72 h
Source text: (§1) Highly sensitive HRP2-based ELISA and [^3H]-hypoxanthine incorporation assay were used as markers for inhibition of parasite growth as previously described (12, 14). A solvent control and a chloroquine (CQ) control were included in the HRP2-based ELISA. CQ, lumefantrine and artesunate were included as controls in the [^3H]-hypoxanthine assay series.
(§2) The assay protocol of the HRP2-based ELISA is described in more detail in the following paragraphs.
(§3) The P. falciparum clones were maintained in continuous culture as described previously (10). Briefly, 3D7 (CQ-sensitive), NF54, and K1 (CQ-resistant) P. falciparum clones were obtained from MR4/American Type Culture Collection, Manassas, Va., USA under the accession numbers MR4-102 (3D7), MRA-1000 (NF54), and MR4-159 (K1). P. falciparum cultures were maintained in 25 cm^2 flasks. Parasites were cultured in RPMI 1640 (Sigma Aldrich, Austria) medium containing 10% human serum at a hematocrit of 5% (blood group 0 negative) at 37° C. under an atmosphere of 5% CO2, 5% O2 and 90% N2. The medium was changed every 24 to 48 hours. The culture was diluted and fresh erythrocytes were added whenever the parasite density reached >1%.
(§4) Stock solutions of compounds of formula I were prepared in DMSO (10 mg/mL). Stock concentrations of chloroquine and lumefantrine always remained 1 mg/mL and were prepared in 70% ethanol. Coating of culture plates with compounds of formula I and controls: 96 wells culture plates were coated as described previously (11). Working standards were prepared by diluting the stock solutions in RPMI1640 to obtain the desired final concentrations. Serial three-fold dilutions (seven concentrations and one drug-free control well) of the drugs (25 μL/well) were dispensed in duplicate into standard 96-well micro culture plates. Chloroquine was included as a reference drug in all experiments.
(§5) After reaching a parasitemia of 5% or higher, 5 mL of cell medium mixture were centrifuged at 700 g for 5 minutes at room temperature (RT). Packed red cells were resuspended in 3 mL of 5% D-sorbitol (Sigma Aldrich, Austria) in water at RT and immediately centrifuged again at 700 g for 5 minutes at RT followed by three washes with 3 mL of RPMI1640 medium. […].
(§6) Samples were diluted with RPMI1640 medium containing 0.5% Albumax II (GIBCO, Invitrogen, Vienna, Austria) by adding uninfected red blood cells to 1.5% hematocrit and 0.05% parasitemia. 150 μL of this cell medium mixture was then added to each well of 96-well plates precoated with test compounds and incubated at 37° C. for 72 hours in a gas mixture containing 5% CO2, 5% O2, and 90% N2. After 72 hours the plates were frozen at −20° C. until the histidine rich protein II assay (23).
(§7) A highly sensitive HRPII ELISA was used based on two commercially available monoclonal antibodies (Immunology Consultants Laboratory, Inc., Newberg, Oreg.) directed against P. falciparum-specific HRPII: MPFM-55A, an immunoglobulin M antibody served as the primary capture antibody and HRP-conjugated MPFG-55P (Immunology Consultants Laboratory, Inc., Newberg, Oreg.) as secondary antibody. The ELISA was employed to assess growth inhibition as a measure of drug susceptibility as previously described. Optical density was measured at 450 nm using a standard ELISA plate reader (12-13).
(§8) Hyperbolic concentration response curves were fitted to the data points by nonlinear least squares using the solver add-in of the Excel software.
(§9) Indicated in TABLE 2 are the IC50 [μM] values for growth inhibition of the 3D7 (NF54) and K1 strains of P. falciparum for the compounds of formula I indicated with their formula numbers in TABLE 2. Unmarked IC50 values for K1 and 3D7 strains of P. falciparum have been determined by HRP II enzyme linked immunosorbent assay (ELISA) as described above. […]

[2] = system: P. falciparum 3D7 (CQ-sensitive); experiment: HRP2-based ELISA growth inhibition, 3D7 strain; settings: Plasmodium falciparum, unmarked values: HRP II ELISA, 72 h
Source text: as §1, §2, §3, §4, §5, §6, §7, §8, §9

[3] = system: P. falciparum NF54 (CQ sensitive); experiment: [3H]-hypoxanthine incorporation assay, NF54 strain; settings: Plasmodium falciparum, values marked with asterisk: [3H]-hypoxanthine assay, read-out: IC50 growth inhibition NF54*
[4] = system: P. falciparum K1 (CQ-resistant); experiment: [3H]-hypoxanthine incorporation assay, K1 strain; settings: Plasmodium falciparum, values marked with asterisk: [3H]-hypoxanthine assay, read-out: IC50 growth inhibition K1 (*)

| Compound | IC50 [1] [nM] | IC50 [2] [nM] | IC50 [3] [nM] | IC50 [4] [nM] |
| --- | --- | --- | --- | --- |
| O=C(NCc1ccccc1)c1ccccc1OCC(O)CN(CCCc1ccccc1)C1C2CC3CC(C2)CC1C3 (stereo not shown) [Compound I-23, 2-{3-[Adamantan-2-yl-(3-phenyl-propyl)-amino]-2-hydroxy-propoxy}-N-benzyl-benzamide] | 34 | 226 |  |  |
| Cc1ccc(NC(=O)c2ccccc2OCC(O)CNC(C)C23CC4CC(CC(C4)C2)C3)cc1 (stereo not shown) [Compound I-41, 2-[3-(1-Adamantan-1-yl-ethylamino)-2-hydroxy-propoxy]-N-p-tolyl-benzamide] | 12 | 70 |  |  |
| CN(CC(O)COc1ccccc1C(=O)NCc1ccc(C(C)(C)C)cc1)C1C2CC3CC(C2)CC1C3 (stereo not shown) [Compound I-64, 2-[3-(Adamantan-2-yl-methyl-amino)-2-hydroxy-propoxy]-N-(4-tert-butyl-benzyl)-benzamide] | 397 | 1480 |  |  |
| O=C(NCc1ccccc1)c1ccccc1OCC(O)CNCCC12CC3CC(CC(C3)C1)C2 (stereo not shown) [Compound I-62, 2-[3-(2-Adamantan-1-yl-ethylamino)-2-hydroxy-propoxy]-N-benzyl-benzamide] | 30 | 704 |  |  |
| O=C(NCc1ccccc1)c1ccccc1OCC(O)CNCC12CC3CC(CC(C3)C1)C2 (stereo not shown) [Compound I-27, 2-{3-[(Adamantan-1-ylmethyl)-amino]-2-hydroxy-propoxy}-N-benzyl-benzamide] | 50 | 177 |  |  |
| COc1ccccc1CNC(=O)c1ccccc1OCC(O)CNC1C2CC3CC(C2)CC1C3 (stereo not shown) [Compound I-7, 2-[3-(Adamantan-2-ylamino)-2-hydroxy-propoxy]-N-(2-methoxy-benzyl)-benzamide] | 99 | 198 |  |  |
| C#CCOc1ccc(OCC(O)CNCc2ccc(C3(C(F)(F)F)N=N3)cc2)c(C(=O)NCCC(C)C)c1 (stereo not shown) [Compound I-44, 2-{2-Hydroxy-3-[4-(3-trifluoromethyl-3H-diazirin-3-yl)-benzylamino]-propoxy}-N-(3-methyl-butyl)-5-prop-2-ynyloxy-benzamide] | 466 | 1310 |  |  |
| C#CCOc1cc(CN(CCC)CC(O)COc2ccccc2C(=O)NCc2ccccc2)ccc1OC (stereo not shown) [Compound I-63, N-Benzyl-2-{2-hydroxy-3-[(4-methoxy-3-prop-2-ynyloxy-benzyl)-propyl-amino]-propoxy}-benzamide] | 982 | 9490 |  |  |
| O=C(NCc1ccccc1)c1ccccc1OCC(O)CNC1C2CC3CC(C2)CC1C3 (stereo not shown) [Compound I-6, 2-[3-(Adamantan-2-ylamino)-2-hydroxy-propoxy]-N-benzyl-benzamide] | 29 | 121 |  |  |
| O=C(NCc1ccccc1)c1ccccc1OCC(O)CNC12CC3CC(CC(C3)C1)C2 (stereo not shown) [Compound I-1, 2-[3-(Adamantan-1-ylamino)-2-hydroxy-propoxy]-N-benzyl-benzamide] | 507 | 2460 |  |  |
| CCCCCN(CC(O)COc1ccccc1C(=O)NCc1ccccc1)C1C2CC3CC(C2)CC1C3 (stereo not shown) [Compound I-19, 2-[3-(Adamantan-2-yl-pentyl-amino)-2-hydroxy-propoxy]-N-benzyl-benzamide] | 40 | 153 |  |  |
| CN(CC(O)COc1ccccc1C(=O)NCc1ccccc1)C1C2CC3CC(C2)CC1C3 (stereo not shown) [Compound I-13, 2-[3-(Adamantan-2-yl-methyl-amino)-2-hydroxy-propoxy]-N-benzyl-benzamide] | 168 | 457 |  |  |
| O=C(NCCCc1ccccc1)c1ccccc1OCC(O)CNC1C2CC3CC(C2)CC1C3 (stereo not shown) [Compound I-11, 2-[3-(Adamantan-2-ylamino)-2-hydroxy-propoxy]-N-(3-phenyl-propyl)-benzamide] | 45 | 186 |  |  |
| CCCN(CC(O)COc1ccccc1C(=O)NCc1ccccc1OC)C1C2CC3CC(C2)CC1C3 (stereo not shown) [Compound I-18, 2-[3-(Adamantan-2-yl-propyl-amino)-2-hydroxy-propoxy]-N-(2-methoxy-benzyl)-benzamide] | 349 | 1570 |  |  |
| COc1ccc(CNC(=O)c2ccccc2OCC(O)CNC2C3CC4CC(C3)CC2C4)cc1 (stereo not shown) [Compound I-8, 2-[3-(Adamantan-2-ylamino)-2-hydroxy-propoxy]-N-(4-methoxy-benzyl)-benzamide] | 13 | 140 |  |  |
| CCCNC(=O)c1ccccc1OCC(O)CNC1C2CC3CC(C2)CC1C3 (stereo not shown) [Compound I-12, 2-[3-(Adamantan-2-ylamino)-2-hydroxy-propoxy]-N-propyl-benzamide] | 92 | 611 |  |  |
| O=C(Nc1cccc(C(F)(F)F)c1)c1cc(Cl)ccc1OCC(O)CN1CCC(Cc2ccccc2)CC1 (stereo not shown) [Compound I-84, 2-[3-(4-Benzyl-piperidin-1-yl)-2-hydroxy-propoxy]-5-chloro-N-(3-trifluoromethyl-phenyl)-benzamide] |  |  | 3.8 | 1 |
| CN(CC(O)COc1ccccc1C(=O)NCc1ccc(C2(C(F)(F)F)N=N2)cc1)C1C2CC3CC(C2)CC1C3 (stereo not shown) [Compound I-43, 2-[3-(Adamantan-2-yl-methyl-amino)-2-hydroxy-propoxy]-N-[4-(3-trifluoromethyl-3H-diazirin-3-yl)-benzyl]-benzamide] |  |  | 119 | 28 |
| O=C(Nc1ccc(Br)cc1)c1ccccc1OCC(O)CNC12CC3CC(CC(C3)C1)C2 (stereo not shown) [Compound I-75, 2-[3-(Adamantan-1-ylamino)-2-hydroxy-propoxy]-N-(4-bromo-phenyl)-benzamide] |  |  | 28 | 7.1 |
| O=C(Nc1cccc(C(F)(F)F)c1)c1cc(Cl)ccc1OCC(O)CN1CCN(C(c2ccccc2)c2ccccc2)CC1 (stereo not shown) [Compound I-85, 2-[3-(4-Benzhydryl-piperazin-1-yl)-2-hydroxy-propoxy]-5-chloro-N-(3-trifluoromethyl-phenyl)-benzamide] |  |  | 5.7 | 1.2 |
| O=C(Nc1ccccc1F)c1ccccc1OCC(O)CN1CCC(Cc2ccccc2)CC1 (stereo not shown) [Compound I-78, 2-[3-(4-Benzyl-piperidin-1-yl)-2-hydroxy-propoxy]-N-(2-fluoro-phenyl)-benzamide] |  |  | 205 | 74 |
| O=C(Nc1cccc(C(F)(F)F)c1)c1ccccc1OCC(O)CN1CCC(Cc2ccccc2)CC1 (stereo not shown) [Compound I-68, 2-[3-(4-Benzyl-piperidin-1-yl)-2-hydroxy-propoxy]-N-(3-trifluoromethyl-phenyl)-benzamide] |  |  | 8.6 | 2.3 |
| C=CCNCC(O)COc1ccccc1C(=O)Nc1ccccc1CC=C (stereo not shown) [Compound I-65, 2-(3-Allylamino-2-hydroxy-propoxy)-N-(2-allyl-phenyl)-benzamide] |  |  | 2550 | 488 |
| O=C(Nc1ccc(F)cc1)c1ccccc1OCC(O)CN1CCN(C(c2ccccc2)c2ccccc2)CC1 (stereo not shown) [Compound I-48, 2-[3-(4-Benzhydryl-piperazin-1-yl)-2-hydroxy-propoxy]-N-(4-fluoro-phenyl)-benzamide] |  |  | 14 | 4 |
| O=C(Nc1ccccc1F)c1ccccc1OCC(O)CN1CCC(c2ccccc2)CC1 (stereo not shown) [Compound I-77, N-(2-Fluoro-phenyl)-2-[2-hydroxy-3-(4-phenyl-piperidin-1-yl)-propoxy]-benzamide] |  |  | 256 | 105 |
| O=C(NCCc1ccccc1)c1cc(Cl)ccc1OCC(O)CNCC12CC3CC(CC(C3)C1)C2 (stereo not shown) [Compound I-33, 2-{3-[(Adamantan-1-ylmethyl)-amino]-2-hydroxy-propoxy}-5-chloro-N-phenethyl-benzamide] |  |  | 27 | 8 |
